Test results published in patent publication US20230027066A1 (Urovant Sciences GmbH, priority 2019, published 2023).
“And” between values parts separate entries of the source, which are not always exact repeats. Equal entries are not always repeated.

What was measured:
[1] = Phase 1 multiple-dose study in healthy subjects, maximum MA4 heart rate; type: in vivo, human; details: for Maximum MA4 HR (maximum change from baseline in moving average of heart rate over 4 hours postdose), LS mean (90% CI) / Maximum MA4 HR, difference from placebo (90% CI): Day 14
Experimental: More intensive assessments of heart rate and blood pressure were performed in healthy volunteers in several Phase 1 studies. […] Doses ranged from 25 to 400 mg once daily for 7 to 28 days depending on the cohort. Least squares mean and 90% confidence intervals of maximum change from baseline in moving average of heart rate over 4 hours postdose (MA4 HR) are presented in Table 7.

[2] = Phase 1 ABPM study, ambulatory blood pressure and heart rate in OAB subjects, 28 days; type: in vivo, human
Experimental: The objectives and endpoints were as described below. “Mean daytime” ABPM endpoints are calculated as the mean of all valid ABPM readings while the subject was awake during the 24-hour monitoring session. “Mean 24 hr” ABPM endpoints are calculated as the mean of all valid ABPM readings during the 24 hr monitoring session.
For the analysis of the ABPM endpoints (CFB to Day 29 of systolic and diastolic blood pressure, and heart rate), a generalized linear model (GLM) was used. […] The analysis model for each efficacy endpoint included terms for treatment, age group (≤55 vs >55 years), sex (Male vs Female), and pre-existing hypertension (Yes vs No), and baseline score.
Primary inferences were drawn from treatment differences for the CFB at Day 29 from the GLM. […] To test the primary hypothesis in Section 85, the upper limit of the two-sided 90% confidence interval was compared to 3.5, and the null hypothesis was rejected if the upper limit was strictly less than 3.5.
The 24-mean ambulatory baseline for systolic and diastolic blood pressure, and heart rate was the arithmetic mean of all valid measurements between the time of cuff-fitting on Day −1 to cuff-removal on Day 1. The 24-hour mean at Day 29 was arithmetic mean of all valid measurements between the time of cuff-fitting on Day 28 to cuff removal on Day 29.
The maximum SBP, DBP and HR in the tmax window at baseline was the maximum of the hourly means of valid measurements from 0.5 to 6.5 hours after the time of cuff fitting on Day −1. On Day 28, the maximum SBP, DBP and HR in the tmax window was the maximum of the hourly means of valid measurements from 0.5 to 6.5 hours after dose.
The mean daytime ambulatory baseline for systolic and diastolic blood pressure, and heart rate was the arithmetic mean of all measurements taken during the time interval in which the subject was awake. The same definition was applied to Day 29 measurements.

[3] = Phase 1 program safety (16 Phase 1 studies); type: in vivo; details: single doses 2 to 600 mg, multiple doses 25 to 400 mg up to 28 days
Excerpt: Safety data from 16 Phase 1 studies, which include 15 completed Phase 1 studies and 1 study that was terminated early (this study was terminated for reasons unrelated to efficacy or safety) was collected.

[4] = vibegron exposure in special populations (renal impairment, CYP3A/P-gp inhibitor, elderly, females); type: in vivo, human
[5] = dose-Cmax and dose-AUC models / log-log regression from Phase 1 data
Experimental: In order to contextualize PK parameters of a 75 mg dose, dose-Cmax and dose-AUC models were created using data from Phase 1 studies.

CYP2D6 = CYP2D6 (Homo sapiens, UniProt P10635); experiment: drug interaction study of vibegron and tolterodine (sensitive CYP2D6 substrate); details: vibegron 100 mg QD at steady state
[6] = vibegron 75 mg/day, 4 weeks, full analysis set
[7] = estimated 75 mg vs 200 mg single dose
[8] = estimated 75 mg vs 400 mg single dose

CYP2D6, sequence (P10635 whole entry): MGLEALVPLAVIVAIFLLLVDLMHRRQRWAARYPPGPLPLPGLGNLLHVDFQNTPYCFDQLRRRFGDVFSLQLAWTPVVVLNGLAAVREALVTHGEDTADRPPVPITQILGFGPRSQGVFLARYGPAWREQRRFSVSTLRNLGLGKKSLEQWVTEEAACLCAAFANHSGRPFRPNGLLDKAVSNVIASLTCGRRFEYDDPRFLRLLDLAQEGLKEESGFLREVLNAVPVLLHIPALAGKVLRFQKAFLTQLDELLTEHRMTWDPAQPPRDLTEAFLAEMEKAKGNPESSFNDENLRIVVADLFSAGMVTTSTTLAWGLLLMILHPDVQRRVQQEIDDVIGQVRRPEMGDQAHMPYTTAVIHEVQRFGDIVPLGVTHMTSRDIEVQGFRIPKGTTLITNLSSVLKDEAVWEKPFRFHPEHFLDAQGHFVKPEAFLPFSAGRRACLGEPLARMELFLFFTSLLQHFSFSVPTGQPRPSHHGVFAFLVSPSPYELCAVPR

## O=C(Nc1ccc(C[C@@H]2CC[C@H]([C@H](O)c3ccccc3)N2)cc1)[C@@H]1CCc2nccc(=O)n21 [Vibegron, (6S)-N-[4-[[(2S,5R)−5-[(R)-hydroxy(phenyl)methyl]pyrrolidin−2-yl]methyl]phenyl]−4-oxo−7,8-dihydro−6H-pyrrolo[1,2-a]pyrimidine−6-carboxamide]
[1]; vibegron 25 mg once daily
  Maximum MA4 HR (maximum change from baseline in moving average of heart rate over 4 hours postdose), LS mean (90% CI): 1.47 (−3.24, 6.17) bpm
  Maximum MA4 HR, difference from placebo (90% CI): −1.60 (−7.09, 3.88) bpm
[1]; vibegron 50 mg once daily
  Maximum MA4 HR (maximum change from baseline in moving average of heart rate over 4 hours postdose), LS mean (90% CI): 1.50 (−2.79, 5.79) bpm
  Maximum MA4 HR, difference from placebo (90% CI): −1.57 (−6.70, 3.56) bpm
[1]; vibegron 100 mg
  maximum MA4 HR, difference from placebo: < 1 bpm
[1]; vibegron 100 mg once daily
  Maximum MA4 HR (maximum change from baseline in moving average of heart rate over 4 hours postdose), LS mean (90% CI): 3.28 (−1.02, 7.57) bpm
  Maximum MA4 HR, difference from placebo (90% CI): 0.21 (−4.93, 5.34) bpm
[1]; vibegron 150 mg once daily
  Maximum MA4 HR (maximum change from baseline in moving average of heart rate over 4 hours postdose), LS mean (90% CI): 3.17 (−1.13, 7.46) bpm
  Maximum MA4 HR, difference from placebo (90% CI): 0.10 (−5.04, 5.23) bpm
[1]; vibegron 200 mg once daily
  Maximum MA4 HR (maximum change from baseline in moving average of heart rate over 4 hours postdose), LS mean (90% CI): 5.67 (0.96, 10.37) bpm
  Maximum MA4 HR, difference from placebo (90% CI): 2.60 (−2.89, 8.08) bpm
[1]; vibegron 300 mg once daily
  Maximum MA4 HR (maximum change from baseline in moving average of heart rate over 4 hours postdose), LS mean (90% CI): 9.06 (4.76, 13.35) bpm
  Maximum MA4 HR, difference from placebo (90% CI): 5.98 (0.85, 11.12) bpm
[1]; vibegron 400 mg once daily
  Maximum MA4 HR (maximum change from baseline in moving average of heart rate over 4 hours postdose), LS mean (90% CI): 10.33 (6.04, 14.63) bpm
  Maximum MA4 HR, difference from placebo (90% CI): 7.26 (2.13, 12.39) bpm
[2]; 75 mg, FAS
  ABPM Max (0.5-6.5 h) DBP Change from Baseline to Day 28, LSMean: 0.63 mmHg
  ABPM Max (0.5-6.5 h) DBP Change from Baseline to Day 28, Treatment Difference Vibegron-Placebo: 1.16 mmHg
  ABPM Max (0.5-6.5 h) HR Change from Baseline to Day 28, LSMean: 1.76 bpm
  ABPM Max (0.5-6.5 h) HR Change from Baseline to Day 28, Treatment Difference Vibegron-Placebo: 1.48 bpm
  ABPM Max (0.5-6.5 h) SBP Change from Baseline to Day 28, LSMean: 1.96 mmHg
  ABPM Max (0.5-6.5 h) SBP Change from Baseline to Day 28, Treatment Difference Vibegron-Placebo: 1.67 mmHg
  ABPM Mean 24 H DBP Change from Baseline to Day 28, LSMean: 0.51 mmHg
  ABPM Mean 24 H DBP Change from Baseline to Day 28, Treatment Difference Vibegron-Placebo: −0.19 mmHg
  ABPM Mean 24 H HR Change from Baseline to Day 28, LSMean: 0.80 bpm
  ABPM Mean 24 H HR Change from Baseline to Day 28, Treatment Difference Vibegron-Placebo: 0.96 bpm
  ABPM Mean 24 H SBP Change from Baseline to Day 28, LSMean: 0.60 mmHg
  ABPM Mean 24 H SBP Change from Baseline to Day 28, Treatment Difference Vibegron-Placebo: 0.57 mmHg
  ABPM Mean Daytime DBP Change from Baseline to Day 28, LSMean: 0.50 mmHg
  ABPM Mean Daytime DBP Change from Baseline to Day 28, Treatment Difference Vibegron-Placebo: −0.04 mmHg
  ABPM Mean Daytime HR Change from Baseline to Day 28, LSMean: 1.08 bpm
  ABPM Mean Daytime HR Change from Baseline to Day 28, Treatment Difference Vibegron-Placebo: 0.88 bpm
  Mean Daytime ABPM SBP Change from Baseline to Day 28, LSMean: 0.82 mm Hg
  Mean Daytime ABPM SBP Change from Baseline to Day 28, Treatment Difference Vibegron-Placebo: 0.81 mm Hg
[2]; 75 mg, PPS
  Change from Baseline to Day 28 for Maximum (0.5 to 6.5 hrs) ABPM SBP, LSMean: 1.0 mm Hg
  Change from Baseline to Day 28 for Maximum (0.5 to 6.5 hrs) ABPM SBP, Treatment Difference Vibegron-Placebo: 1.05 mm Hg
  Mean Daytime ABPM SBP Change from Baseline to Day 28, LSMean: 0.19 mm Hg
  Mean Daytime ABPM SBP Change from Baseline to Day 28, Treatment Difference Vibegron-Placebo: 0.41 mm Hg
[2]; Maximum (0.5-6.5 h), FAS
  ABPM DBP Day 28 change from baseline ≥10 mmHg, subjects: 9 (9.8) n (%)
  ABPM HR Day 28 change from baseline ≥10 bpm, subjects: 20 (21.7) n (%)
  ABPM SBP Day 28 change from baseline ≥15 mmHg, subjects: 6 (6.5) n (%)
[2]; Mean 24-hour, FAS
  ABPM DBP Day 28 change from baseline ≥10 mmHg, subjects: 1 (1.0) n (%)
  ABPM HR Day 28 change from baseline ≥10 bpm, subjects: 3 (3.1) n (%)
  ABPM SBP Day 28 change from baseline ≥15 mmHg, subjects: 2 (2.1) n (%)
[2]; Mean Daytime, FAS
  ABPM DBP Day 28 change from baseline ≥10 mmHg, subjects: 2 (2.1) n (%)
  ABPM HR Day 28 change from baseline ≥10 bpm, subjects: 3 (3.1) n (%)
  ABPM SBP Day 28 change from baseline ≥15 mmHg, subjects: 2 (2.1) n (%)
[2]; vibegron 75 mg, 28 days
  effects on blood pressure (overall conclusion of ABPM study): no clinically relevant effects on blood pressure
  mean change of daytime ambulatory systolic blood pressure from baseline, difference from placebo (primary endpoint): less than 1 mm Hg
[2]; vibegron 75 mg/day, 4-week treatment, full analysis set
  mean change from baseline in daytime ambulatory systolic blood pressure: 0.89 mmHg
[2]; vibegron 75 mg/day, 4 weeks
  mean change of 24-hour ambulatory diastolic blood pressure from baseline, lower than placebo by: 0.19 mmHg
  mean change of 24-hour ambulatory heart rate from baseline: about 0.80
  mean change of 24-hour ambulatory heart rate from baseline, higher than placebo by: 0.96 bpm
  mean change of 24-hour ambulatory systolic blood pressure from baseline, higher than placebo by: 0.57 mmHg
  mean change of daytime ambulatory diastolic blood pressure from baseline, lower than placebo by: 0.04 mmHg
  mean change of daytime ambulatory heart rate from baseline: about 1.08 bpm
  mean change of daytime ambulatory heart rate from baseline, higher than placebo by: 0.88 bpm
  mean increase in 24-hour ambulatory diastolic blood pressure from baseline: 0.51 mmHg
  mean increase in 24-hour ambulatory systolic blood pressure from baseline: 0.61 mmHg and 0.60 mmHg
[2]; [6]
  mean change of daytime ambulatory systolic blood pressure from baseline, higher than placebo by: 0.81 mmHg
  mean daytime ambulatory systolic upper bound of the 90% confidence interval (Table 103): 1.11 mm Hg
[2]; vibegron 75 mg/day, 4 weeks, full analysis set (Table 101)
  mean daytime ambulatory systolic blood pressure, upper bound of 90% confidence interval of difference from placebo: 2.49 mm Hg
[2]; vibegron 75 mg/day, 4 weeks, per protocol set
  mean change of daytime ambulatory systolic blood pressure from baseline, higher than placebo by: 0.41 mmHg
[2]; vibegron 75 mg/day, 4 weeks, per protocol set (Table 102)
  mean daytime ambulatory systolic blood pressure, upper bound of 90% confidence interval of difference from placebo: 2 mm Hg
[3]
  tolerability across the Phase 1 program: generally well tolerated
[4]; elderly and females
  higher Cmax in elderly and females than healthy young males: 50-70%
[4]; moderate renal impairment
  mean increase in AUC in subjects with moderate renal impairment vs normal renal function: 1.6 fold
[5]; [7]
  AUC of 75 mg dose lower than 200 mg single dose: ~2 fold
  Cmax of 75 mg dose lower than 200 mg single dose: approximately 3.3 fold
[5]; [8]
  AUC of 75 mg dose lower than 400 mg single dose: ~6 fold
  Cmax of 75 mg dose lower than 400 mg single dose: ~9.2 fold
[5]; vibegron 50 vs 100 mg
  increase in Cmax with increase in dose from 50 to 100 mg: ~3 fold
[5]; vibegron 75 vs 100 mg
  reduction in Cmax with a 25% reduction in dose (100 mg to 75 mg): ~40%
CYP2D6
  inhibition of CYP2D6 (conclusion from tolterodine interaction study): does not inhibit CYP2D6
